Laboratory results from patent US20240208964A1, “PYRIDOPYRIMIDINES AND METHODS OF THEIR USE” (PYRIDOPYRIMIDINES AND METHODS OF THEIR USE, priority 2020, published 2024).
pIC50: −log10 of the molar value. Read-outs that look alike come from different tables or passages of the source.

Target: full-length human PIKFYVE (GST-PIKFYVE) (Homo sapiens (Human), UniProt Q9Y2I7, L932S/Q1183K/Q995L/S1033A/S696N/T998S)
Assay: PIKfyve biochemical assay (ADP-Glo Kinase assay, Carna Biosciences)
Description: PIKfyve Biochemical Assay. The biochemical PIKFyve inhibition assays were run by Carna Biosciences according to proprietary methodology based on the Promega ADP-Glo™ Kinase assay. A full-length human PIKFYVE [1-2098(end) amino acids and S696N, L932S, Q995L, T998S, S1033A and Q1183K of the protein having the sequence set forth in NCBI Reference Sequence No. NP_055855.2] was expressed as N-terminal GST-fusion protein (265 kDa) using baculovirus expression system. GST-PIKFYVE was purified by using glutathione sepharose chromatography and used in an ADP-Glo™ Kinase assay (Promega). Reactions were set up by adding the test compound solution, substrate solution, ATP solution and kinase solution, each at 4× final concentrations. Reactions were prepared with assay buffer (50 mM MOPS, 1 mM DTT, pH7.2), mixed, and incubated in black 384 well polystyrene plates for 1 hour at room temperature. ADP-Glo™ reagent was then added for 40 minutes, followed by kinase detection reagent for an additional 40 minutes. The kinase activity was evaluated by detecting relative light units on a luminescence plate reader. Samples were run in duplicate from 10 μM to 3 nM. […] IC50 values were calculated from concentration vs % inhibition curves by fitting to a four-parameter logistic curve.
The biochemical PIKFyve inhibition assays were run by Carna Biosciences according to proprietary methodology based on the Promega ADP-Glo™ Kinase assay. A full-length human PIKFYVE [1-2098(end) amino acids and S696N, L932S, Q995L, T998S, S1033A and Q1183K of accession number NP_055855.2] was expressed as N-terminal GST-fusion protein (265 kDa) using baculovirus expression system. GST-PIKFYVE was purified by using glutathione sepharose chromatography and used in an ADP-Glo™ Kinase assay (Promega).
Reactions were set up by adding the test compound solution, substrate solution, ATP solution and kinase solution, each at 4× final concentrations. Reactions were prepared with assay buffer (50 mM MOPS, 1 mM DTT, pH7.2), mixed, and incubated in black 384 well polystyrene plates for 1 hour at room temperature. ADP-Glo™ reagent was then added for 40 minutes, followed by kinase detection reagent for an additional 40 minutes. The kinase activity was evaluated by detecting relative light units on a luminescence plate reader. Samples were run in duplicate from 10 uM to 3 nM. […] IC50 values were calculated from concentration vs % inhibition curves by fitting to a four-parameter logistic curve.

[1] = ADP-Glo, full-length human PIKFYVE, read-out: hPIKfyve IC50
[2] = values plotted in FIG. 7, read-out: PIKFYVE Biochemistry (IC50)

Sequence of full-length human PIKFYVE (GST-PIKFYVE) (Q9Y2I7 whole entry S696N/L932S/Q995L/T998S/S1033A/Q1183K): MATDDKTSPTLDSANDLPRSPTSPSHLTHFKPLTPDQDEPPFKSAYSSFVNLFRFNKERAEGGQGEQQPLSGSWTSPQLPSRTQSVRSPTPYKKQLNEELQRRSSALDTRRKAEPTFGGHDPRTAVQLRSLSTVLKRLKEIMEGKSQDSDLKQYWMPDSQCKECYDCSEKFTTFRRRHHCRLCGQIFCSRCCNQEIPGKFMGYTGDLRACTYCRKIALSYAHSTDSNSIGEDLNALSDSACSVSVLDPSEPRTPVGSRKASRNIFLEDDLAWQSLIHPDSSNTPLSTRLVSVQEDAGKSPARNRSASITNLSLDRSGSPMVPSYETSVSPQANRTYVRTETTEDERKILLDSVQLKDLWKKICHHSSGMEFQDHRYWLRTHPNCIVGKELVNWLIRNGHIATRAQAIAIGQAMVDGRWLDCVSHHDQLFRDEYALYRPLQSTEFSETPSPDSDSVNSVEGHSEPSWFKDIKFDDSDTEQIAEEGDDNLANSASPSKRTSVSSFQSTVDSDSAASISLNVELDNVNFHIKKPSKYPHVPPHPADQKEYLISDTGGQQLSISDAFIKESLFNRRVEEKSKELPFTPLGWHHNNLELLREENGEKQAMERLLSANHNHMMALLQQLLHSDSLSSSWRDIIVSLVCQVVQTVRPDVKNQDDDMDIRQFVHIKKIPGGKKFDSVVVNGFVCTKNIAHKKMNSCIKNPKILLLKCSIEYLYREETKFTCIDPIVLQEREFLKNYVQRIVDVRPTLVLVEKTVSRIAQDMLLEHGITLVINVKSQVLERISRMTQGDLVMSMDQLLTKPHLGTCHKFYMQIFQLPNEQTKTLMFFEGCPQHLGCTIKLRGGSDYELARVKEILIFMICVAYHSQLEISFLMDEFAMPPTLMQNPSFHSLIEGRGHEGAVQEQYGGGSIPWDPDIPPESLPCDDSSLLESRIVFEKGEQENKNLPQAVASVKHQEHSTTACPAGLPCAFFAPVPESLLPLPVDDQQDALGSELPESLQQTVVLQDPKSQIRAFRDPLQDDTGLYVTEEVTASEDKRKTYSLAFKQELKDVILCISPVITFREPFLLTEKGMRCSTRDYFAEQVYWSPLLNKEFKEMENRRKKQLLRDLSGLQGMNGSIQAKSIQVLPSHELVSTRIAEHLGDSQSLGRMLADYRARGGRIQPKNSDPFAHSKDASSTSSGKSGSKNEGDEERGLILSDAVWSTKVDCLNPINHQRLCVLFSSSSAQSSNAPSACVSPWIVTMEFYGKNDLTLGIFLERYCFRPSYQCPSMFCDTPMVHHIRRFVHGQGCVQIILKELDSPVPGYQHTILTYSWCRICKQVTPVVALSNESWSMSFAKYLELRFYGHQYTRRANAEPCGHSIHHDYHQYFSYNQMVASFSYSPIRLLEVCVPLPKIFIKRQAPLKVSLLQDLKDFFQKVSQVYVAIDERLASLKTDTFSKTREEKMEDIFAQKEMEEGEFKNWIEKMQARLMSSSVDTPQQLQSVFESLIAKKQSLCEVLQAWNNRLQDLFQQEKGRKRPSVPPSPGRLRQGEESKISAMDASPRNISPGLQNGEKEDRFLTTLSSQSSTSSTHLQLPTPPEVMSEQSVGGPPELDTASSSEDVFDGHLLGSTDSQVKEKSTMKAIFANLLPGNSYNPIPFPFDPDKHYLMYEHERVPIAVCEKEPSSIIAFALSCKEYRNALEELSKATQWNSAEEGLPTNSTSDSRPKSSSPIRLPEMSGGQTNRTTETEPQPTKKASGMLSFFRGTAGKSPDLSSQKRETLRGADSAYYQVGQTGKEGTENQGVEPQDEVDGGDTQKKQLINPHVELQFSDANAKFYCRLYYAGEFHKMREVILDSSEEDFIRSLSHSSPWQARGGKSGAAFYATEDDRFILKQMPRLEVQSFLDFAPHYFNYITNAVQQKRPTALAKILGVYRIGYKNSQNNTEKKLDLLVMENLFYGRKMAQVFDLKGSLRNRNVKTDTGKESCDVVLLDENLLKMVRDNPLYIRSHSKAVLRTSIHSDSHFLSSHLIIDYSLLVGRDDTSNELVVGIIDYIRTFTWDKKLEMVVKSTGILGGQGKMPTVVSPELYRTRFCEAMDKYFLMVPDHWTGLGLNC

| Compound | pIC50 [1] | pIC50 [2] |
| --- | --- | --- |
| Oc1cc(-c2ccccc2)nn1-c1nc(N2CCOCC2)c2ncccc2n1 [compound 27, 1-(4-morpholinopyrido[3,2-d]pyrimidin-2-yl)-3-phenyl-1H-pyrazol-5-ol] | 7.00 to 8.00 |  |
| c1ccc(-c2nc(-c3cc(N4CCOCC4)nc(OCc4ccncc4)n3)no2)cc1 |  | < 5.00 |
| Cc1cccc(CCNc2nc(N3CCOCC3)c3ncc(Cc4cccnc4)cc3n2)c1 [compound 78] | 6.00 to 7.00 |  |
| Fc1cccc(-c2nccc(-c3nc(N4CCOCC4)c4ncc(Cc5cccnc5)cc4n3)n2)c1 [compound 86] | 6.00 to 7.00 |  |
| c1cnc2c(N3CCOCC3)nc(-n3ccc(C4CCOCC4)n3)nc2c1 [compound 45, 4-(2-(3-(tetrahydro-2H-pyran-4-yl)-1H-pyrazol-1-yl)pyrido[3,2-d]pyrimidin-4-yl)morpholine] | 5.00 to 6.00 |  |
| CC(C)(C)OC(=O)N1CCN(c2nccc(-c3nc(N4CCOCC4)c4ncccc4n3)n2)CC1 [compound 55, tert-butyl 4-[4-(4-morpholinopyrido[3,2-d]pyrimidin-2-yl)pyrimidin-2-yl]piperazine-1-carboxylate] | 5.00 to 6.00 |  |
| c1ccc(-c2ccn(-c3nc(N4CCOCC4)c4cnccc4n3)n2)cc1 [compound 46, 4-(2-(3-phenyl-1H-pyrazol-1-yl)pyrido[4,3-d]pyrimidin-4-yl)morpholine] | 5.00 to 6.00 |  |
| CC(C)(C)OC(=O)N1CCC=C(c2ccn(-c3nc(N4CCOCC4)c4ncccc4n3)n2)C1 [compound 4, tert-butyl 3-(1-(4-morpholinopyrido[3,2-d]pyrimidin-2-yl)-1H-pyrazol-3-yl)-5,6-dihydropyridine-1(2H)-carboxylate] | 5.00 to 6.00 |  |
| O=c1ccn(Cc2nc(N3CCOCC3)cc(-n3nccc3-c3ccccc3)n2)cc1 |  | < 5.00 |
| Cc1cccc(CCNc2nc(N3CCOCC3)c3ncccc3n2)c1 [compound 23, N-(3-methylphenethyl)-4-morpholinopyrido[3,2-d]pyrimidin-2-amine] | 6.00 to 7.00 |  |
| c1ccc(Oc2nc(N3CCOCC3)c3ncc(Cc4cccnc4)cc3n2)cc1 [compound 84] | 5.00 to 6.00 |  |
| c1cnc2c(N3CCOCC3)nc(-c3ccnc(N4CCOCC4)n3)nc2c1 [compound 51, 4-[4-(4-morpholinopyrido[3,2-d]pyrimidin-2-yl)pyrimidin-2-yl]morpholine] | 5.00 to 6.00 |  |
| c1cnc2c(N3CCOCC3)nc(-c3ccnc(C4CCOCC4)n3)nc2c1 [compound 35, 4-[2-(2-tetrahydropyran-4-ylpyrimidin-4-yl)pyrido[3,2-d]pyrimidin-4-yl]morpholine] | 5.00 to 6.00 |  |
| c1coc(-c2nc(N3CCOCC3)c3ncccc3n2)c1 [compound 74] | 6.00 to 7.00 |  |

The next lines start with results.

| pIC50 [1] | Compound | pIC50 [2] |
| --- | --- | --- |
| 6.00 to 7.00 | O=C(c1cccnc1)c1nc(N2CCOCC2)c2ncccc2n1 [compound 73] |  |
| 5.00 to 6.00 | Fc1cccc(Nc2nc(N3CCOCC3)c3ncc(Cc4cccnc4)cc3n2)c1 [compound 83] |  |
| 6.00 to 7.00 | Cc1cccc(CCNc2nc(N3CCOCC3)c3ncc(C(=O)c4cccnc4)cc3n2)c1 [compound 77] |  |
| 6.00 to 7.00 | c1ccc2nn(-c3nc(N4CCOCC4)c4ncccc4n3)cc2c1 [compound 7, 4-(2-indazol-2-ylpyrido[3,2-d]pyrimidin-4-yl)morpholine] |  |
| 7.00 to 8.00 | c1ccc(-c2ccn(-c3nc(N4CCOCC4)c4ncccc4n3)n2)nc1 [compound 12, 4-(2-(3-(pyridin-2-yl)-1H-pyrazol-1-yl)pyrido[3,2-d]pyrimidin-4-yl)morpholine] |  |
| 5.00 to 6.00 | CN1CCCC(c2ccn(-c3nc(N4CCOCC4)c4ncccc4n3)n2)C1 (stereo not drawn) [compound 44, 4-(2-(3-(1-methylpiperidin-3-yl)-1H-pyrazol-1-yl)pyrido[3,2-d]pyrimidin-4-yl)morpholine] |  |
| 5.00 to 6.00 | CN1CCC(c2nccc(-c3nc(N4CCOCC4)c4ncccc4n3)n2)CC1 [compound 38, 4-[2-[2-(1-methyl-4-piperidyl)pyrimidin-4-yl]pyrido[3,2-d]pyrimidin-4-yl]morpholine] |  |
| 5.00 to 6.00 | CC(C)(C)OC(=O)N1CCC(c2ccn(-c3nc(N4CCOCC4)c4ncccc4n3)n2)CC1 [compound 5, tert-butyl 4-[1-(4-morpholinopyrido[3,2-d]pyrimidin-2-yl)pyrazol-3-yl]piperidine-1-carboxylate] |  |
| 6.00 to 7.00 | c1ccc(-c2ccn(-c3nc(N4CCOCC4)c4ccncc4n3)n2)cc1 [compound 13] |  |
| 5.00 to 6.00 | O=C1N(c2cccc(F)c2)CCN1c1nc(N2CCOCC2)c2ncccc2n1 [compound 28, 1-(3-fluorophenyl)-3-(4-morpholinopyrido[3,2-d]pyrimidin-2-yl)imidazolidin-2-one] |  |
| 6.00 to 7.00 | Cc1cccc(CCNc2nc(N3CCOCC3)c3ncc(C(O)c4cccnc4)cc3n2)c1 (stereo not drawn) [compound 76] |  |
| 5.00 to 6.00 | Oc1cc(-c2ccccc2)nn1-c1nc(N2CCOCC2)c2cccnc2n1 [compound 25, 2-(4-morpholinopyrido[2,3-d]pyrimidin-2-yl)-5-phenyl-2,4-dihydro-3H-pyrazol-3-one] |  |
| 5.00 to 6.00 | CCn1c(-c2ccccc2)nn(-c2nc(N3CCOCC3)c3ncccc3n2)c1=O [compound 31, 4-ethyl-2-(4-morpholinopyrido[3,2-d]pyrimidin-2-yl)-5-phenyl-1,2,4-triazol-3-one] |  |
| 5.00 to 6.00 | CC(C)(C)OC(=O)N1CCCC(c2ccn(-c3nc(N4CCOCC4)c4ncccc4n3)n2)C1 (stereo not drawn) [compound 6, tert-butyl 3-(1-(4-morpholinopyrido[3,2-d]pyrimidin-2-yl)-1H-pyrazol-3-yl)piperidine-1-carboxylate] |  |
| 5.00 to 6.00 | c1cnc2c(N3CCOCC3)nc(-c3ccnc(C4CCNCC4)n3)nc2c1 [compound 37, 4-[2-[2-(4-piperidyl)pyrimidin-4-yl]pyrido[3,2-d]pyrimidin-4-yl]morpholine] |  |
| 5.00 to 6.00 | Cn1c(-c2ccccc2)nn(-c2nc(N3CCOCC3)c3ncccc3n2)c1=O [compound 32, 4-methyl-2-(4-morpholinopyrido[3,2-d]pyrimidin-2-yl)-5-phenyl-1,2,4-triazol-3-one] |  |
| 5.00 to 6.00 | c1cnc2c(N3CCOCC3)nc(-n3ccc(-c4cncnc4)n3)nc2c1 [compound 2, 4-[2-(3-pyrimidin-5-ylpyrazol-1-yl)pyrido[3,2-d]pyrimidin-4-yl]morpholine] |  |
| 5.00 to 6.00 | CC(C)(C)OC(=O)N1CC=C(c2ccn(-c3nc(N4CCOCC4)c4ncccc4n3)n2)CC1 [compound 3, tert-butyl 4-[1-(4-morpholinopyrido[3,2-d]pyrimidin-2-yl)pyrazol-3-yl]-3,6-dihydro-2H-pyridine-1-carboxylate] |  |
| 7.00 to 8.00 | c1cncc(Oc2nc(N3CCOCC3)c3ncccc3n2)c1 [compound 75] |  |
